The assay concerns the target T1, NtrC D54E (Escherichia coli, UniProt P0AFB8, D54E).
T1 construct: gene glnG
The experiment in a line: biochemical. The note with it: read-out: % inhibition at 250 μM.

Each structure is given as a SMILES string.

For orientation: inhibition means the percentage by which the read-out fell short of the control.

T1 sequence (P0AFB8 whole entry D54E): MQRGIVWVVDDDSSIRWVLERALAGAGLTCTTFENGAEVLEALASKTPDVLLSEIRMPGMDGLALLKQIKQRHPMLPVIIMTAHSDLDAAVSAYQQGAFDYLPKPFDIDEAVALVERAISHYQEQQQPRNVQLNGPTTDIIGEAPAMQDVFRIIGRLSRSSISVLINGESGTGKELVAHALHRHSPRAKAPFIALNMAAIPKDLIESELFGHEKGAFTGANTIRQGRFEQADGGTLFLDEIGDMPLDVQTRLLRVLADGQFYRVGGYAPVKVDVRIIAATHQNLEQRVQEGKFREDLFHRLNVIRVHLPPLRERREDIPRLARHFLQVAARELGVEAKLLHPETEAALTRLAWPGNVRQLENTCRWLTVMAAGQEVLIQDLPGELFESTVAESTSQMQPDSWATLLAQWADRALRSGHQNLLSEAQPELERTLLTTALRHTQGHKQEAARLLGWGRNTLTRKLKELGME

In the case of `CC(C)COC(=O)CSc1n[nH]c(=O)[nH]c1=O` [compound 11], the inhibition at 250 µM was approximately 10%.

With `CC(C)(C)COC(=O)CSc1n[nH]c(=O)[nH]c1=O` [compound 12], the inhibition at 250 µM is approximately 10%.

The values above are taken from paper PMC3386246 (PLoS Pathogens, 2012).
